Results from US20240082212A1, “USE OF MDMA FOR TREATMENT OF STRESS-RELATED DISORDERS” (priority 2022, published 2024).

How the values were obtained:
C57BL/6J mice = experiment: Head twitch response (HTR); format: in vivo, mouse; settings: 30 minutes after injection
Protocol: Male C57BL/6J mice at 6-8 weeks of age were purchased from Jackson Laboratories and housed four per cage in a climate and humidity-controlled room in a vivarium at the University of California, San Diego. The room operated on a reverse light cycle (lights on at 1900 h, off at 0700 h) with food and water available ad libitum, except during testing. All testing was performed during 1000 h and 1800 h. After a minimum of 1 week acclimation to the housing facility, mice were anesthetized using a mixture of ketamine (100 mg/kg IP) and xylazine (10 mg/kg IP). Under deep anesthesia, an incision was made in the scalp and a small neodymium magnet (4.57 mm×4.57 mm×2.03 mm) was attached to the cranium using cyanoacrylate and dental cement. After at least a 2-week recovery period, the mouse was removed from the home cage and injected intraperitoneally with the test article or vehicle (0.9% sterile saline). Immediately, the mouse was placed in a glass cylinder surrounded by a magnetometer coil and the head twitch response (HTR) was assessed for 30 minutes (Halberstadt and Geyer, 2013). The output of the coil was recorded using a Powerlab/8SP with LabChart v.7.3.2 (ADInstruments). Coil voltage was amplified, low-pass filtered (2-10 kHz cut-off frequency) to remove interference, digitized and sampled at 20 kHz. Head twitches were identified using a validated technique based on artificial intelligence (Halberstadt, 2020). Events in the recordings were transformed into a visual representation in the time-frequency domain and deep features were extracted using the pretrained convolutional neural network ResNet-50, and the images were subsequently classified using a Support Vector Machine algorithm.
Test articles (R,S-MDA, R(−)-MDA, S-(+)MDA), R,S-MDMA, R(−)-MDMA and S(+)-MDMA) were supplied by the NIDA Drug Supply Program as neat powders. Racemic MDA and MDMA and their enantiomers were dissolved in saline and injected IP at a volume of 5 mL/kg. Each dose was calculated based on the salt form of the compounds. For each treatment condition, six groups of mice (n=5-6/group) were treated with vehicle or the test drug (0.1, 0.3, 1, 3, or 10 mg/kg) and HTR assessed for 30 minutes immediately following injections. To avoid carryover effects, each treatment condition was performed at least seven days apart. Total number of mice used for the experiment was 63.

[1] = test system: L-type calcium channel phenylalkylamine binding site; experiment: Eurofins Panlabs radioligand binding panel, L-type calcium channel; design: species or system Rat; settings: for % inhibition of binding or activity: 10 uM; for IC50 / Ki: 10 half-log concentrations, 0.3 nM to 10 μM, duplicate
[2] = target: Nicotinic acetylcholine α3β4 (Homo sapiens, UniProt P30926+P32297); experiment: Eurofins Panlabs radioligand binding panel, nicotinic acetylcholine α3β4
Nicotinic acetylcholine α3β4, sequence (P32297 32-505): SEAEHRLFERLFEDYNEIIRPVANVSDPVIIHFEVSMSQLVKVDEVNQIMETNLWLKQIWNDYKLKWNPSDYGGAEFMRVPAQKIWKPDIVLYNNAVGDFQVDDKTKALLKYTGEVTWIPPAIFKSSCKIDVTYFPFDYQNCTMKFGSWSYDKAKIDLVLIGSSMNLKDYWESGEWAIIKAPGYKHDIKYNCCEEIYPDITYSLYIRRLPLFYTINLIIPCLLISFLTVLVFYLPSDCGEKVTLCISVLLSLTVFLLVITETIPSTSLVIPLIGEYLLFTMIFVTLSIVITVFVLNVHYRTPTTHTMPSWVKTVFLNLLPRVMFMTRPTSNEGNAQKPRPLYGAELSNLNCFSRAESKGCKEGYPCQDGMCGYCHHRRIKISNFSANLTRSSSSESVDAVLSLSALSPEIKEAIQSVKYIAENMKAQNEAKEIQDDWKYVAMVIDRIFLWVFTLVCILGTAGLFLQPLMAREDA
Nicotinic acetylcholine α3β4, sequence (P30926 22-498): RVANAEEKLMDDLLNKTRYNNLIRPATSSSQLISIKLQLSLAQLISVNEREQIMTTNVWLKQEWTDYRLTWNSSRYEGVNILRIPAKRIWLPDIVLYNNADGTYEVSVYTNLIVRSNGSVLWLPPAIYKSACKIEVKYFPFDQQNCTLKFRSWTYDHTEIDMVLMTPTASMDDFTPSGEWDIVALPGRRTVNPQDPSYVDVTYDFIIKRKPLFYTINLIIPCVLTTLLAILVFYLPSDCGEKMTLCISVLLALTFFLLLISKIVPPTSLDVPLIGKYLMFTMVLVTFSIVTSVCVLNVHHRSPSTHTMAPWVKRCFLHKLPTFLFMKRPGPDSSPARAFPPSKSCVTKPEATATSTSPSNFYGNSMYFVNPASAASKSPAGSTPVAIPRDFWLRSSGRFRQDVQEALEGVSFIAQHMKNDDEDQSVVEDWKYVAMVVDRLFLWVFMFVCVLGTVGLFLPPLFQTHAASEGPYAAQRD

Serotonin 5-HT2A = Serotonin 5-HT2A (Homo sapiens, UniProt P28223); experiment: Eurofins Panlabs radioligand binding panel, serotonin 5-HT2A
Serotonin 5-HT2A, sequence (P28223 whole entry): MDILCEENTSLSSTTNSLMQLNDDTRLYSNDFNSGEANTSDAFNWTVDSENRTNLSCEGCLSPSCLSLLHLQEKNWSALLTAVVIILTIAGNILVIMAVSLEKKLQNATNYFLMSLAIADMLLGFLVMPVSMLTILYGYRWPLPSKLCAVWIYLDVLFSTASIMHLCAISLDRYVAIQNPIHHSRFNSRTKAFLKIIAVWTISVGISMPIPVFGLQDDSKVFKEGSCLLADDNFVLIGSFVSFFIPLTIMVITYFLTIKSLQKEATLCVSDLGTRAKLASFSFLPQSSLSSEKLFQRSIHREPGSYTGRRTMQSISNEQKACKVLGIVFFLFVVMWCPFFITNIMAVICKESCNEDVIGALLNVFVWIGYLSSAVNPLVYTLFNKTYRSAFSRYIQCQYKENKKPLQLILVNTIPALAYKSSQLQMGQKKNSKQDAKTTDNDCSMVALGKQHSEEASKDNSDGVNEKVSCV

C57BL/6 mice = experiment: Mouse extinction of conditioned fear assay; format: in vivo
Protocol: Racemic MDMA and R(−)-MDMA were evaluated for extinction of fear memory. The study utilized a mouse extinction of conditioned fear assay. A conditioned fear response is induced by pairing a previously neutral stimulus (conditioned stimulus; CS, such as an auditory tone) and aversive stimulus (unconditioned stimulus; US, such as […]). The fear response is later extinguished with repeated re-exposure to the CS in the absence of the US. This is a useful model for understanding learning and memory processes required for long-term recovery from PTSD, because it resembles exposure-based therapy, wherein repeated exposure to a fear-eliciting stimulus or memory promotes a reduced fear response to future reminders of the trauma. […] The current experiment investigated the ability of varying doses of R(−)-MDMA to facilitate extinction of conditioned fear in mice.
Standard rodent chow and water was available ad libitum.
The animal procedures were conducted according to established protocols approved by the IACUC committee and Melior Discovery Inc. Standard Operation Procedures (SOP). The behavioral procedure was adapted from Young et al., Transl Psychiatry 5, e634 (2015) with slight modifications. Mice were handled for two consecutive days for four minutes each day and injected with drug vehicles prior to the experiment. […] Fear conditioning was conducted in individual automated chambers built by Kinder Scientific (Poway, CA) that detect movement with infrared beams. On Day 1, Conditioning, each animal was placed in a chamber and presented a training session (Context A). An almond scent was present under the grid floor during the entire session. The training procedure consisted of a 2-minute habituation followed by a 30-second, 80 dB tone (CS). During the last 2 seconds of the tone, the animal received a 1 mA foot shock (US). This US-CS procedure occurred once for a total of one paired presentation of tone and shock. Freezing behavior (immobility) was recorded in 5-second intervals during the session. Percent baseline freezing behavior was determined in the 2-minute habituation period. After the session, animals were returned to their cages in the holding room. Animals were not manipulated on Day 2. On Day 3, Extinction Training, two days (48 hours) following fear conditioning, each animal was placed in Context B, in which the tactile and odor cues of the conditioning chambers were altered with a different (lemon) scent and black Plexiglas floor placed over the grid floor. Following a 2-minute acclimation period, the animal received four 30-second presentations of the CS (tone) in the absence of the US (foot shock), with a 45-second interval between presentations and 30 seconds of chamber consolidation. Immobility was recorded in 5-second intervals to measure baseline freezing response to the altered context, and freezing response to each tone/cue presentation. On Day 3, each animal was administered vehicle or racemic MDMA by intraperitoneal (IP) injection at 30 minutes prior, to the extinction training session. On Days 4, 8, and 13, Extinction Testing sessions, each animal was placed in Context B. Following a 2-minute acclimation period, each animal received four 30-second presentations of the CS (tone) in the absence of the US (foot shock), with a 45-second interval between presentations and 30 seconds of chamber consolidation. Immobility was recorded in 5-second intervals to measure baseline freezing response to the altered context, and freezing response to each tone/cue presentation.
Each animal in each treatment group received IP administration of vehicle or R(−)-MDMA or racemic MDMA at 30 minutes prior to extinction training on day 3. […] Injection volumes were 10 mL/kg. The study was run in 2 cohorts. Data were presented as mean±standard error of the mean of the percentage (%) of the session time spent freezing (absence of movement other than respiration) or activity counts during the 2-minute acclimation period.

[3] = Day 3, racemic MDMA 7.8 mg/kg IP
[4] = Day 4, racemic MDMA 7.8 mg/kg IP
[5] = Days 8 and 13, single racemic MDMA 7.8 mg/kg IP on Day 3
[6] = Days 8 and 13, single R-MDMA 30 mg/kg IP on Day 3

For `C[C@H](N)Cc1ccc2c(c1)OCO2` [S-MDA, S(+)-MDA], the “head twitch response (HTR) compared to control (vehicle)” value (C57BL/6J mice; 10 mg/kg IP) was “reduction of HTR”.
`CNC(C)Cc1ccc2c(c1)OCO2` (single isomer, unassigned) [S-MDMA, S(+)-MDMA] was tested, and the “% inhibition of binding or activity” value [1] was 51%, the IC50 [1] was 9.31 µM and the Ki [1] was 9.05 µM. The “head twitch response (HTR) compared to control (vehicle)” value (C57BL/6J mice; 3 mg/kg IP) was “reduction of HTR” and the “head twitch response (HTR) compared to control (vehicle)” value (C57BL/6J mice; 10 mg/kg IP) was “reduction of HTR”.
`CNC(C)Cc1ccc2c(c1)OCO2` (racemic) [Racemic MDMA, 3,4-methylenedioxymethamphetamine] was tested, and the “% inhibition of binding or activity” value ([2]; 10 uM) was 66%, the “% inhibition of binding or activity” value (Serotonin 5-HT2A; 10 uM) was 59% and the “head twitch response (HTR) compared to control (vehicle)” value (C57BL/6J mice; 3 mg/kg IP, listed as R,S-MDMA) was “decrease in HTR”. For the same molecule, the “activity counts vs vehicle” value (C57BL/6 mice; [3]) was “significant increase in activity”, the freezing vs vehicle (C57BL/6 mice; [3]) was “significantly reduced freezing” and the “activity counts vs vehicle” value (C57BL/6 mice; [4]) was “significantly increased activity”. The freezing vs vehicle (C57BL/6 mice; [4]) was “significantly reduced freezing”, the “activity counts vs vehicle” value (C57BL/6 mice; [5]) was “significant increases in activity” and the freezing vs vehicle (C57BL/6 mice; [5]) was “significantly reduced freezing”.
With `CNC(C)Cc1ccc2c(c1)OCO2` (single isomer, unassigned) [R-MDMA, R(−)-3,4-methylenedioxymethamphetamine] the “% inhibition of binding or activity” value [1] was 55%, the IC50 [1] was 9.5 µM and the Ki [1] was 9.23 µM. The inhibition at 10 µM ([2]; read-out: % inhibition of binding or activity) was 55%, the IC50 (Serotonin 5-HT2A) was 9.91 µM and the Ki (Serotonin 5-HT2A) was 2.83 µM. For the same molecule, the “head twitch response (HTR) compared to control (vehicle)” value (C57BL/6J mice; 3 mg/kg IP) was “increase in HTR”, the freezing vs vehicle (C57BL/6 mice; Day 3 (extinction training, single IP dose 30 min prior), R-MDMA 17 and 30 mg/kg) was “reduced freezing” and the freezing vs vehicle (C57BL/6 mice; Day 3, R-MDMA 10 mg/kg IP) was “no significant effect on freezing”. For the same molecule, the “activity counts vs vehicle” value (C57BL/6 mice; Day 3, all doses of R-MDMA (10, 17, 30 mg/kg IP)) was “Significantly increased activity counts”, the freezing vs vehicle (C57BL/6 mice; Day 4 (day after single dose), R-MDMA 10, 17 and 30 mg/kg IP) was “significantly reduced freezing” and the activity vs vehicle (C57BL/6 mice; Day 4, R-MDMA 10 mg/kg IP) was “without a significant increase in activity”. For the same molecule, the “activity counts vs vehicle” value (C57BL/6 mice; Day 4, R-MDMA 30 mg/kg IP) was “significantly increased activity”, the “locomotor activity vs vehicle” value (C57BL/6 mice; Days 3, 4, 8, 13, R-MDMA 17 mg/kg IP on Day 3) was “significantly increased locomotor activity only on the day of administration” and the freezing significantly reduced (C57BL/6 mice; Days 8 and 13, single R-MDMA 17 mg/kg IP on Day 3) was “but not on Days 8 and 13”. The “activity counts vs vehicle” value (C57BL/6 mice; [6]) was “significant increases in activity” and the freezing vs vehicle (C57BL/6 mice; [6]) was “significantly reduced freezing”.
